In PubChem BioAssay AID2060605 (Molecular Pharmacology Branch, DTP, NCI, 2025):

System: 947758-054-R-J2-PDC spheroid growth, percent test/control
Test: Anticancer human tumor 947758-054-R-J2-PDC patient-derived colon adenocarcinoma cell line growth inhibition [CLK]
Conditions: spheroids with HUVEC and MSC; for IC50: curve of first compound; for viability, T/C: stronger effect = lower value
From the text: A high-throughput screen of multi-cell type tumor spheroids was designed to identify active combinations of […] and targeted small molecules. Complex spheroids include a stromal component modeled by human endothelial cells (HUVEC) and fibroblasts modeled by human mesenchymal stem cells (MSCs). The concentration ranges selected for each drug and investigational agent were based upon clinically achievable concentrations if the clinical Cmax of the agent was known.
Compounds. The drugs and investigational agents: cirtuvivint (SM08502; NSC835563), CC-671 (NSC850746), vemurafenib (NSC761431), tapotoclax (NSC804041), sotorasib (NSC818433), adagrasib (NSC831453), MRTX-1133 (NSC836407), BAY2416964 (NSC825713), copanlisib (NSC816437), inavolisib (NSC800729), abemaciclib (NSC768073), osimertinib (NSC779217), entinostat (NSC756642), eltanexor (KPT-8602, NSC794443), venetoclax (NSC766270), ceralasertib (NSC777638), bortezomib (NSC756655), olaparib (NSC753686), talazoparib (NSC767125), alisertib (NSC759677), peposertib (NSC802822), gemcitabine (NSC613327), 5-fluorouracil (NSC19893), SN-38 (NSC673596), oxaliplatin (NSC266046), paclitaxel (NSC125973), and doxorubicin (NSC123127), were obtained from the National Cancer Institute (NCI) Developmental Therapeutics Program Chemical Repository. The FDA-approved anticancer drug set is available from the Developmental Therapeutics Program at https://dtp.cancer.gov/organization/dscb/obtaining/available plates.htm. […] The stock solutions were prepared in dimethyl sulfoxide (DMSO, Sigma-Aldrich, St. Louis, MO, cat. D2650), except for the platinum complexes which were prepared in saline (Quality Biological, Gaithersburg, MD, cat. 114-055-101), at 800-fold the tested concentration and stored at -70 degrees C prior to their use. All drugs and investigational agents were tested over a range starting from a high concentration at or near the clinical Cmax and decreasing in half-log increments. If the clinical Cmax for an agent had not been determined, the highest concentration tested was 10 microM.
Cell Culture. All cells were maintained in an incubator at 37 degrees C and 5% CO2 with 95% humidity. The PDC lines were cultured according to standard operating procedures established by the NCI PDMR. Briefly, all PDCs were thawed and cultured in Matrigel-coated flasks prepared with a working solution of 1X Ham's F-12 nutrient mix, without supplementation (Invitrogen, Waltham, MA, cat. 11765054), 100 U/mL penicillin-streptomycin (Invitrogen, cat. 15140122), and 2.5% Matrigel (Corning Inc., Corning, NY, cat. 354248) for the first three passages. The 947758-054-R-J2-PDC line was cultured in 6B/Colon 1A media, which includes advanced DMEM/F-12 (Thermo Fisher Scientific, cat. 12634028), 10 mM HEPES (Thermo Fisher Scientific, cat. 15630080), 1X GlutaMAX supplement (Thermo Fisher Scientific, cat. 35050061), 0.1 mg/mL primocin (InvivoGen, cat. ant-pm-2), 10% defined fetal bovine serum, heat inactivated (HyClone Laboratories Inc., cat. SH30070.03HI), 1.25 mM N-Acetyl-L-cysteine (Sigma-Aldrich, cat. A9165), 10 mM nicotinamide (Sigma-Aldrich, cat. N0636), 1X B-27 supplement (Thermo Fisher Scientific, cat. 17504044), 1X N-2 supplement (Thermo Fisher Scientific, cat. 17502048), and 10 microM Y-27632 dihydrochloride (Tocris Bioscience, cat. 1254). The 876862-298-R-J1-PDC was cultured in 6E media, which includes all 6B/Colon 1A media components plus 50% L-WRN conditioned media (ATCC, cat. CRL-3276), 50 ng/mL recombinant human EGF recombinant protein (hEGF; Thermo Fisher Scientific, cat. PHG0311), 10 ng/mL recombinant human fibroblast growth factor 10 (hGFG-10; PeproTech, cat. 100-26), 1 ng/mL recombinant human fibroblast growth factor 2 (hFGF-2; PeproTech, cat. 100-18B), and 1 µM prostaglandin E2 (PGE2; Tocris, cat. 2296). The 227483-062-R1-J1-PDC line was cultured in Panc media, containing all 6E components except hFGF-2, with the addition of 500 nM SB-431542 (Selleckchem, cat. S1067) and 10 nM gastrin (Tocris, cat. 3006). […]
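Further: spheroids exposed to compounds for one week before readout.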
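Wherever viability, T/C is given: 100% = DMSO vehicle control wells.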

## CC(=O)O[C@H]1C(=O)[C@@]2(C)[C@H]([C@H](OC(=O)c3ccccc3)[C@]3(O)C[C@H](OC(=O)[C@H](O)[C@@H](NC(=O)c4ccccc4)c4ccccc4)C(C)=C1C3(C)C)[C@]1(OC(C)=O)CO[C@@H]1C[C@@H]2O + CN1CCN(c2cc(C(=O)Nc3cc4cc(-c5cnn(C)c5)ccc4cn3)ccn2)CC1
Second compound 0.0316 µM
  IC50: < 0.0316 µM
Second compound 0.1 µM
  IC50: < 0.0316 µM
Second compound 0.316 µM
  IC50: < 0.0316 µM
Second compound 1 µM
  IC50: < 0.0316 µM
Second compound 3.16 µM
  IC50: < 0.0316 µM
Second compound 10 µM
  IC50: < 0.0316 µM
Second compound 0.0316 µM, first compound 0.0316 µM
  viability, T/C: 7.4%
Second compound 0.0316 µM, first compound 0.1 µM
  viability, T/C: 6.03%
Second compound 0.0316 µM, first compound 0.316 µM
  viability, T/C: 4.94%
Second compound 0.0316 µM, first compound 1 µM
  viability, T/C: 5.77%
Second compound 0.0316 µM, first compound 3.16 µM
  viability, T/C: 6.99%
Second compound 0.0316 µM, first compound 10 µM
  viability, T/C: 11.8%
Second compound 0.1 µM, first compound 0.0316 µM
  viability, T/C: 5.33%
Second compound 0.1 µM, first compound 0.1 µM
  viability, T/C: 5.11%
Second compound 0.1 µM, first compound 0.316 µM
  viability, T/C: 4.6%
Second compound 0.1 µM, first compound 1 µM
  viability, T/C: 4.61%
Second compound 0.1 µM, first compound 3.16 µM
  viability, T/C: 5.41%
Second compound 0.1 µM, first compound 10 µM
  viability, T/C: 8.84%
Second compound 0.316 µM, first compound 0.0316 µM
  viability, T/C: 1.4%
Second compound 0.316 µM, first compound 0.1 µM
  viability, T/C: 1.86%
Second compound 0.316 µM, first compound 0.316 µM
  viability, T/C: 2.27%
Second compound 0.316 µM, first compound 1 µM
  viability, T/C: 1.92%
Second compound 0.316 µM, first compound 3.16 µM
  viability, T/C: 2.04%
Second compound 0.316 µM, first compound 10 µM
  viability, T/C: 2.67%
Second compound 1 µM, first compound 0.0316 µM
  viability, T/C: 0.1%
Second compound 1 µM, first compound 0.1 µM
  viability, T/C: 0.12%
Second compound 1 µM, first compound 0.316 µM
  viability, T/C: 0.3%
Second compound 1 µM, first compound 1 µM
  viability, T/C: 0.08%
Second compound 1 µM, first compound 3.16 µM
  viability, T/C: 0.09%
Second compound 1 µM, first compound 10 µM
  viability, T/C: 0.09%
Second compound 3.16 µM, first compound 0.0316 µM
  viability, T/C: 0.16%
Second compound 3.16 µM, first compound 0.1 µM
  viability, T/C: 0.22%
Second compound 3.16 µM, first compound 0.316 µM
  viability, T/C: 0.21%
Second compound 3.16 µM, first compound 1 µM
  viability, T/C: 0.14%
Second compound 3.16 µM, first compound 3.16 µM
  viability, T/C: 1.02%
Second compound 3.16 µM, first compound 10 µM
  viability, T/C: 0.58%
Second compound 10 µM, first compound 0.0316 µM
  viability, T/C: 1.41%
Second compound 10 µM, first compound 0.1 µM
  viability, T/C: 0.29%
Second compound 10 µM, first compound 0.316 µM
  viability, T/C: 0.23%
Second compound 10 µM, first compound 1 µM
  viability, T/C: 0.25%
Second compound 10 µM, first compound 3.16 µM
  viability, T/C: 0.27%
Second compound 10 µM, first compound 10 µM
  viability, T/C: 0.7%
